Source: ChEMBL document CHEMBL2157985, “Development of programmable small DNA-binding molecules with epigenetic activity for induction of core pluripotency genes” (Bioorg Med Chem, 2012)
Calls of active or inactive are those of the source. The calls are words filed in the database; no cut-off is given here.

Columns and labels:
MEF [1] = test: Upregulation of Nanog gene expression in C57BL/6 MEF at 100 nM after 24 hrs by quantitative RT-PCR analysis relative to control; assay type: functional, Mus musculus; conditions: for Activity: Mus musculus
MEF [2] = test: Upregulation of Klf4 gene expression in C57BL/6 MEF at 100 nM after 24 hrs by quantitative RT-PCR analysis relative to control; assay type: functional, Mus musculus; conditions: for Activity: Mus musculus
[3] = Inhibition of HDAC
MEF [4] = test: Induction of Oct3/4 gene expression in C57BL/6 MEF at 100 nM after 24 hrs by quantitative RT-PCR analysis relative to control; assay type: functional, Mus musculus; conditions: for Activity: Mus musculus
MEF [5] = test: Cytotoxicity against C57BL/6 MEF at 100 nM by WST-8 assay; assay type: cell-based; conditions: mouse, 0.1 µM
MEF [6] = test: Upregulation of c-Myc gene expression in C57BL/6 MEF at 100 nM after 24 hrs by quantitative RT-PCR analysis relative to control; assay type: functional, Mus musculus; conditions: for Activity: Mus musculus
MEF [7] = test: Upregulation of Sox2 gene expression in C57BL/6 MEF at 100 nM after 24 hrs by quantitative RT-PCR analysis relative to control; assay type: functional, cell-based; conditions: Mus musculus

Row | Structure (SMILES) | fold change (FC) (MEF [1]) | fold change (FC) (MEF [2]) | HDAC inhibition activity [3] | fold change (FC) (MEF [4]) | Activity (MEF [5]) | fold change (FC) (MEF [6]) | Activity (MEF [7]) | Activity (MEF [1]) | Activity (MEF [4]) | Activity (MEF [2]) | Activity (MEF [6])
1 | CC(=O)Nc1cn(C)c(C(=O)Nc2cc(C(=O)Nc3cc(C(=O)Nc4cc(C(=O)NCCCC(=O)Nc5cc(C(=O)Nc6cc(C(=O)Nc7cc(C(=O)Nc8cc(C(=O)NCCCN(C)CCCNC(=O)c9ccc(NC(=O)CCCCCCC(=O)NO)cc9)n(C)c8)n(C)c7)n(C)c6)n(C)c5)n(C)c4)n(C)c3)n(C)c2)n1 | 2 | 2.2 | Active | 2 | Non-toxic | 1.5 | Active |  |  |  | 
2 | CONC(=O)CCCCCCC(=O)Nc1ccc(C(=O)NCCC(=O)NCCC(=O)Nc2cn(C)c(C(=O)Nc3cc(C(=O)Nc4cc(C(=O)Nc5cc(C(=O)NCCCC(=O)Nc6cc(C(=O)Nc7cc(C(=O)Nc8cc(C(=O)Nc9cc(C(=O)NCCCN(C)C)n(C)c9)n(C)c8)n(C)c7)n(C)c6)n(C)c5)n(C)c4)n(C)c3)n2)cc1 |  |  |  |  |  |  | Active | inactive | inactive |  | 
3 | CN(C)CCCNC(=O)CCNC(=O)c1cc(NC(=O)c2cc(NC(=O)c3cc(NC(=O)c4cc(NC(=O)CCCNC(=O)c5cc(NC(=O)c6cc(NC(=O)c7cc(NC(=O)c8nc(NC(=O)CCNC(=O)CCNC(=O)c9ccc(NC(=O)CCCCCCC(=O)NO)cc9)cn8C)cn7C)cn6C)cn5C)cn4C)cn3C)cn2C)cn1C | 2 |  | Active | 2 | Non-toxic | 1.8 | Active |  |  | Active | 
4 | O=C(CCCCCCC(=O)Nc1ccccc1)NO |  |  |  |  |  |  | Active | inactive | inactive |  | 
5 | CN(C)CCCNC(=O)c1cc(NC(=O)c2cc(NC(=O)c3cc(NC(=O)c4cc(NC(=O)CCCNC(=O)c5cc(NC(=O)c6cc(NC(=O)c7cc(NC(=O)c8nc(NC(=O)CCNC(=O)CCNC(=O)CCNC(=O)c9ccc(NC(=O)CCCCCCC(=O)NO)cc9)cn8C)cn7C)cn6C)cn5C)cn4C)cn3C)cn2C)cn1C |  | 1.5 | Active | 4.5 | Non-toxic | 1.5 | Active | Active |  |  | 
6 | CN(C)CCCNC(=O)c1cc(NC(=O)c2cc(NC(=O)c3cc(NC(=O)c4cc(NC(=O)CCCNC(=O)c5cc(NC(=O)c6cc(NC(=O)c7cc(NC(=O)c8nc(NC(=O)CCNC(=O)CCNC(=O)c9ccc(NC(=O)CCCCCCC(=O)NO)cc9)cn8C)cn7C)cn6C)cn5C)cn4C)cn3C)cn2C)cn1C | 2 |  | Active | 3.1 | Non-toxic |  | Active |  |  | inactive | inactive
7 | CN(C)CCCNC(=O)c1cc(NC(=O)c2cc(NC(=O)c3cc(NC(=O)c4cc(NC(=O)CCCNC(=O)c5cc(NC(=O)c6cc(NC(=O)c7cc(NC(=O)c8nc(NC(=O)CCNC(=O)CCNC(=O)CCNC(=O)CCNC(=O)c9ccc(NC(=O)CCCCCCC(=O)NO)cc9)cn8C)cn7C)cn6C)cn5C)cn4C)cn3C)cn2C)cn1C | 2 | 1.5 | Active | 3.6 | Non-toxic | 1.5 | Active |  |  |  | 
8 | CN(C)CCCNC(=O)c1cc(NC(=O)c2cc(NC(=O)c3cc(NC(=O)c4cc(NC(=O)CCCNC(=O)c5cc(NC(=O)c6cc(NC(=O)c7cc(NC(=O)c8nc(NC(=O)CCNC(=O)c9ccc(NC(=O)CCCCCCC(=O)NO)cc9)cn8C)cn7C)cn6C)cn5C)cn4C)cn3C)cn2C)cn1C | 2 | 1.5 | Active | 2 | Non-toxic |  | Active |  |  |  | inactive
